Reference: ChEMBL document CHEMBL4819042, “Aromatic and Aliphatic Apiuronides from the Bark of Cinnamomum cassia” (J Nat Prod, 2021)
The source made the active and inactive calls. The rule behind the calls is not given here.

Tested on: Mus musculus
Experiment: Analgesic activity against paclitaxel-induced cold allodynia in C57BL/6 mouse model at 10 mg/kg, po administered at day 14 and day 25 of post paclitaxel stimulation and measured after 1 hr
Type: functional, organism-based

| SMILES | Activity |
| --- | --- |
| CC(C)[C@@]1(O)CC2(O)[C@@]3(O)[C@]45O[C@](O)(C[C@@]2(C)[C@@]4(O)CC[C@H](C)[C@H]5O)[C@@]31C | Active |
| CC1=C(C(C)CO[C@@H]2O[C@H](CO)[C@@H](O)[C@H](O)[C@H]2O)C[C@@]2(O)[C@@]3(C)CC(=O)O[C@@H]4[C@@H](C)CC[C@@]3(O)[C@@]4(O)[C@@]12O (some centres undefined) | Active |
| COc1cc([C@H]2OC[C@H]3[C@@H]2CO[C@@H]3c2cc(OC)c(O)c(OC)c2)cc(OC)c1O | Active |
| COc1cc(O[C@@H]2O[C@H](CO[C@@H]3OC[C@](O)(CO)[C@H]3O)[C@@H](O)[C@H](O)[C@H]2O)cc(OC)c1OC | Active |
